Here are results for twelve compounds from patent US11034698B2, “Pyrazolo[ 1,5a]pyrimidine derivatives as IRAK4 modulators” (priority 2017, dated 2021).

pKi: −log10 of the molar value. Where a name gives a salt, the structure may show the parent alone.

human IRAK4, sequence (Q9NWZ3 whole entry): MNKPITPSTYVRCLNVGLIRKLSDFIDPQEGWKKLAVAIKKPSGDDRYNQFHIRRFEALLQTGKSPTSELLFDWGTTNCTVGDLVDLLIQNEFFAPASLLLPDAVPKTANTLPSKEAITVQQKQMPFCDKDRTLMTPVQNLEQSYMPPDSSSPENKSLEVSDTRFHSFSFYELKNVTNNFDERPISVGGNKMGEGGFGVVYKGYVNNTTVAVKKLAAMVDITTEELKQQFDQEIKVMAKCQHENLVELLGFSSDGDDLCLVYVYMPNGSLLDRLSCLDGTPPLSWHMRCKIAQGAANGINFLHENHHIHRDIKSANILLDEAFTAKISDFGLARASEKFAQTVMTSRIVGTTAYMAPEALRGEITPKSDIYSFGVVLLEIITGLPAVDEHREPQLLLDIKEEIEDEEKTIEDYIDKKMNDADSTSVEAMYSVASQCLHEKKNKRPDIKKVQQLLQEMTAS

The first test addresses human IRAK4 (Homo sapiens (Human), UniProt Q9NWZ3). As to the kind of experiment: IRAK4 kinase inhibition, Transcreener fluorescence polarization (ADP).
Settings: not given
Format: biochemical. As to the method: Compounds were assayed for inhibition of human IRAK4 and IRAK1 catalytic activity using recombinant enzyme produced from insect cells. Full-length IRAK4 protein, carrying an N-terminal His6-Tag, was obtained from Life Technologies (Carlsbad, Calif., USA). The IRAK1 construct was produced internally and was comprised of IRAK1 residues Arg194 to Ser712, preceded by an NH2-terminal His6 tag and the coding sequence for glutathione-S-transferase.
Kinase activities were assayed using the Transcreener-Fluorecescence polarization platform (BelBrook Labs, Madison, Wis., USA) that measures amounts of the reaction product, ADP.
Background: Fluorescence polarisation rises when a labelled molecule tumbles more slowly, as on binding a larger partner.
As to `CN(C)c1cc2c(cc1NC(=O)c1cnn3cccnc13)CC(C)(C)[C@@H]2O` (single isomer, unassigned) [Example 157], the pKi (commonly −log10 of the Ki, conventionally taken in molar units) was 6.51.

The test is the same for the next values; noted with them: recombinant full-length His6-IRAK4 1.25 nM; 125 uM ATP; 125 uM peptide; 90 min; ATP Km 642 uM; read-out: IRAK4 Ki.
In the case of `CC[C@@H]1CC(=O)NN1C1CCN(c2cc3c(cc2NC(=O)c2cnn4cccnc24)CC(C)(C)O3)CC1` [Example 17, (R)-N-(6-(4-(5-Ethyl-3-oxopyrazolidin-1-yl)piperidin-1-yl)-2,2-dimethyl-2,3-dihydrobenzofuran-5-yl)pyrazolo[1,5-a]pyrimidine-3-carboxamide], the pKi is 8.08. On to `COc1cc2c(cc1NC(=O)c1cnn3ccc(N4CCNCC4)nc13)CC(C)(C)O2` [Example 42, N-(6-Methoxy-2,2-dimethyl-2,3-dihydrobenzofuran-5-yl)-5-(piperazin-1-yl)pyrazolo[1,5-a]pyrimidine-3-carboxamide], for which the pKi is 7.66. As for `CC(C)(O)[C@H](F)CN1Cc2cc(NC(=O)c3cnn4cccnc34)c(OC3CNC3)cc2C1=O` [Example 73, N-[6-(Azetidin-3-yloxy)-2-[(2R)-2-fluoro-3-hydroxy-3-methyl-butyl]-1-oxo-isoindolin-5-yl]pyrazolo[1,5-a]pyrimidine-3-carboxamide hydrochloride], the pKi is 8.43. For `Cc1ccc(=O)[nH]c1CN1CCN(c2cc3c(cc2NC(=O)c2cnn4cccnc24)CC(C)(C)O3)CC1` [Example 5, N-(2,2-Dimethyl-6-(4-((3-methyl-6-oxo-1,6-dihydropyridin-2-yl)methyl)piperazin-1-yl)-2,3-dihydrobenzofuran-5-yl)pyrazolo[1,5-a]pyrimidine-3-carboxamide], the pKi is 7.74. The same measure, in the same setting: next, `CC(C)(O)[C@H](F)CN1Cc2cc(NC(=O)c3cnn4cccnc34)c(N3CCN(C4COC4)CC3)cc2C1=O` [Example 105, (R)-N-(2-(2-Fluoro-3-hydroxy-3-methylbutyl)-6-(4-(oxetan-3-yl)piperazin-1-yl)-1-oxoisoindolin-5-yl)pyrazolo[1,5-a]pyrimidine-3-carboxamide]: 8.47; `CC(C)(O)[C@H](F)CN1Cc2cc(NC(=O)c3cnn4cccnc34)c(OCC(F)F)cc2C1=O` [Example 65, (R)-N-(6-(2,2-Difluoroethoxy)-2-(2-fluoro-3-hydroxy-3-methylbutyl)-1-oxoisoindolin-5-yl)pyrazolo[1,5-a]pyrimidine-3-carboxamide]: 9.59. Consider `O=C(Nc1cc2c(cc1N1CCOCC1)OCCS2)c1cnn2cccnc12` [Example 153, N-(7-Morpholino-2,3-dihydro-1,4-benzoxathiin-6-yl)pyrazolo[1,5-a]pyrimidine-3-carboxamide], for which the pKi is 6.55. Same read-out and setting: next, `CC(C)(O)[C@H](F)CN1Cc2cc(NC(=O)c3cnn4cccnc34)c(N3CCC(CC(F)F)CC3)cc2C1=O` [Example 96, (R)-N-(6-(4-(2,2-Difluoroethyl)piperidin-1-yl)-2-(2-fluoro-3-hydroxy-3-methylbutyl)-1-oxoisoindolin-5-yl)pyrazolo[1,5-a]pyrimidine-3-carboxamide]: 8.82; `O=C(Nc1cc2c(cc1N1CCOCC1)C(=O)N(C1CC3(COC3)C1)C2)c1cnn2cccnc12` [Example 94, N-[6-Morpholino-2-(2-oxaspiro[3.3]heptan-6-yl)-1-oxo-isoindolin-5-yl]pyrazolo[1,5-a]pyrimidine-3-carboxamide]: 8.31; `CC(=O)Nc1ccn2ncc(C(=O)Nc3cc4c(cc3N(C)C)C(=O)N(C[C@@H](F)C(C)(C)O)C4)c2n1` [Example 131, (R)-5-Acetamido-N-(6-(dimethylamino)-2-(2-fluoro-3-hydroxy-3-methylbutyl)-1-oxoisoindolin-5-yl)pyrazolo[1,5-a]pyrimidine-3-carboxamide]: 8.19.

With `CC(C)(O)[C@H](F)CN1Cc2cc(NC(=O)c3cnn4cccnc34)c(O[C@H]3CC[C@@H](O)C3)cc2C1=O` [Example 66, N-(2-((R)-2-Fluoro-3-hydroxy-3-methylbutyl)-6-(((1S,3R)-3-hydroxycyclopentyl)oxy)-1-oxoisoindolin-5-yl)pyrazolo[1,5-a]pyrimidine-3-carboxamide], the pKi is 9.17.
